Experimental data reported in patent publication US20250115581A1, “SUBSTITUTED PIPERIDINES AS CK1A DEGRADERS” (Monte Rosa Therapeutics, Inc., priority 2022, published 2025).

Columns and labels:
CK1α = biological target: T1, CK1α (Homo sapiens, UniProt P48729+Q96SW2); assay: CK1α NanoBit Assay (HiBiT-tagged CSNK1A1 in HEK293 cells, luminescence); type: cell-based; settings: 24 h
T1 construct: HEK293 clonal lines with CRISPR KI HiBiT tag on CSNK1A1; host or cells: HEK293 clonal line, CRISPR knock-in HiBiT at the CSNK1A1 locus, stably expressing LgBiT
T1 sequence (P48729 whole entry): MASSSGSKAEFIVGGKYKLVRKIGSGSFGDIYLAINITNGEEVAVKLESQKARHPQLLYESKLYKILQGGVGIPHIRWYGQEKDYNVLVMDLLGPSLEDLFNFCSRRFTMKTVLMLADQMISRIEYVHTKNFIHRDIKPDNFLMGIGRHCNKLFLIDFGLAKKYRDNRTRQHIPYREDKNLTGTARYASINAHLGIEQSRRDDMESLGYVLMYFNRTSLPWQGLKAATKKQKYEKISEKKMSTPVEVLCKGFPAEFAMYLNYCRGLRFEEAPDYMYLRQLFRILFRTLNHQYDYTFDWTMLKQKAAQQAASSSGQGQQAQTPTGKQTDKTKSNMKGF
T1 sequence (Q96SW2 whole entry): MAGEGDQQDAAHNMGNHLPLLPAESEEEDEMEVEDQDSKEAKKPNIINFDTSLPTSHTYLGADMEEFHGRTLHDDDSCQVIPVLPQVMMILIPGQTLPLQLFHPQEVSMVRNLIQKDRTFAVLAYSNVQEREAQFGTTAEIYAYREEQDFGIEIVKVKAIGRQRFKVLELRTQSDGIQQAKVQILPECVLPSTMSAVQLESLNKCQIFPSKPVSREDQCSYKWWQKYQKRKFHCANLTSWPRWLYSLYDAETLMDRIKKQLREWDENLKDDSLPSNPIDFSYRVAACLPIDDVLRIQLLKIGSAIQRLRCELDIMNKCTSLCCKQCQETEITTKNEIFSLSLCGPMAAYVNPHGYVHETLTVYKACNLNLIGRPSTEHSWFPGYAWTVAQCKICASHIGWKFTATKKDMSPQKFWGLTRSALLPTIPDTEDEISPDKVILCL
T1 sequence (Q16531 whole entry partner): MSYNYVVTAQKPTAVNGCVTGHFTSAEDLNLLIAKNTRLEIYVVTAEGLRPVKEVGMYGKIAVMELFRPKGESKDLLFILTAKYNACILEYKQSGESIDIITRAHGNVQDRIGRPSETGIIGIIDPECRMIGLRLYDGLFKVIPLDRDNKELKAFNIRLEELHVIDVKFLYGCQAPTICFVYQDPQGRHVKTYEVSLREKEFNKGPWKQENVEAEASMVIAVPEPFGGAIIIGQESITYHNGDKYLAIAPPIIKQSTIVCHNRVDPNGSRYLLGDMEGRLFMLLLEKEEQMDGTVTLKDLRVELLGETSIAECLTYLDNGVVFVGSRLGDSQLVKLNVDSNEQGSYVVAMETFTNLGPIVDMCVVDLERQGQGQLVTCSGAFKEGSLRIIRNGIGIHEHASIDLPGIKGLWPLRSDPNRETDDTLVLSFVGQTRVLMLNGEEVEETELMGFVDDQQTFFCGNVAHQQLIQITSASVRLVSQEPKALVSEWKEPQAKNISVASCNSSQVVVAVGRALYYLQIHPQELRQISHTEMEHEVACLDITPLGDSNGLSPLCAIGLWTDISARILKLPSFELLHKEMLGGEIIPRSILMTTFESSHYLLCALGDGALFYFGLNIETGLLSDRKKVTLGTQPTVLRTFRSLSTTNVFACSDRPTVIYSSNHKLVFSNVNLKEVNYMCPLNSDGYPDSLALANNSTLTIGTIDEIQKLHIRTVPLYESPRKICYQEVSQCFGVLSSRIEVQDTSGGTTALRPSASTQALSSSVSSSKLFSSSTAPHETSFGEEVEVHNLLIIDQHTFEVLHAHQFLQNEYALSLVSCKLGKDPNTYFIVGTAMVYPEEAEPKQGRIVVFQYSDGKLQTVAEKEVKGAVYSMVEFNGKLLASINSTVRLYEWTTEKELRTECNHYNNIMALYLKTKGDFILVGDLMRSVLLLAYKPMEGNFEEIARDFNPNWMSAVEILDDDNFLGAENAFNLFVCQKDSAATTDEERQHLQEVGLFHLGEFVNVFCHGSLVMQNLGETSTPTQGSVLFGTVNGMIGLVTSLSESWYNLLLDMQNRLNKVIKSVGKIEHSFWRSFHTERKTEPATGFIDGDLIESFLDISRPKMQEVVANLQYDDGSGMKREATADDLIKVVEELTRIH
Procedure, shortened: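 HEK293 with endogenous HiBiT-tagged CSNK1A1 and stable LgBiT, live-cell Endurazine substrate; compound added at 10 or 30 μM final top concentration after 16 h plating, then 24 h at 37 °C. Luminescence normalised to plate controls; DC50 by 3-parameter logistic fit, hill slope 1.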

CRBN/DDB1 = CRBN/DDB1 (Homo sapiens, UniProt Q96SW2); assay: HTRF binding assay (displacement of Cy5-thalidomide probe from CRBN/DDB1); settings: CRBN/DDB1 2.5 nM, Cy5-Thalidomide 100 nM, 30 min; geometric mean; read-out: HTRF_Thali_Disp_DR_geo_IC50
Chain of CRBN/DDB1 (Q96SW2 whole entry): as the sequence (Q96SW2 whole entry) above
Chain of CRBN/DDB1 (Q16531 whole entry partner): as the sequence (Q16531 whole entry partner) above
Procedure, shortened: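 HTRF displacement of Cy5-thalidomide probe (100 nM) from His-tagged CRBN/DDB1 (2.5 nM) with anti-His terbium cryptate, in HEPES/NaCl/TCEP/EDTA/Tween20 buffer; 10-point 1:3 series, 30 min at ambient temperature. 665/620 nm ratio fitted 4-parameter logistic for IC50; Ki via Cheng-Prusoff.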

SKCO1 = assay: Growth inhibition, CyQUANT Direct Cell Proliferation Assay, SKCO1; type: cell-based; settings: Homo sapiens, SK-CO-1; SKCO1 cells, 120 to 168 hours
Method: (§1) SKCO1, LS180, and LS174T cell lines were purchased from ATCC. CW2 cell line was purchased from Riken. GP2D cell line was purchased from Sigma/ECACC. All cell lines were cultured in manufacturer's recommended media at 37° C., 5% CO2. Briefly, cells were suspended in 200 μL of media and seeded at 300 to 1,800 cells per well in tissue culture treated 96-well plates with black walls and clear bottom. Plates were incubated overnight and initial (TO) read was performed the following day using CyQUANT Direct Cell Proliferation Assay Kit (Thermo Fisher Scientific) according to manufacturer's protocol. All compounds were solubilized in DMSO and prepared at 3-fold serial dilution, using 9 points starting at 30 μM as highest concentration, administered to cells and incubated for 120 to 168 hours, at which point CyQUANT assay measurement was performed using Acumen Cellista instrument (Ex/Em 480/520 nm). Media-only wells were used as blank, and 0.3% DMSO was used as DMSO-treated cell control. Growth inhibition (percent response) was calculated using the following formula in Excel: “=if ([Compound treated Day N]>[Untreated Day 0, AVG], ([Compound treated Day N]− [Untreated Day 0, AVG])/([Untreated Day N]−[Untreated Day 0, AVG])*100, ([Compound Treated Day N]−[Untreated Day 0, AVG])/([Untreated Day 0, AVG])*100)”. GI50 is the response corresponding to the 50% of untreated control.
(§2) GI50 data are reported in Tables 4a, 4b, 4c, 4d, and 4e for compounds in Table 1. In Tables 4a, 4b, 4c, 4d, and 4e below, According to the code, A represents a GI50 value of ≤0.1 μM, B represents a GI50 value >0.1 μM and ≤1 μM, C represents an GI50 value >1 μM.

CW2 = assay: Growth inhibition, CyQUANT Direct Cell Proliferation Assay, CW2; type: cell-based; settings: Homo sapiens, CW-2; CW2 cells, 120 to 168 hours
Method: as §1, §2

GP2D = assay: Growth inhibition, CyQUANT Direct Cell Proliferation Assay, GP2D; type: cell-based; settings: GP2D cells, 120 to 168 hours
Method: as §1, §2

LS180 = assay: Growth inhibition, CyQUANT Direct Cell Proliferation Assay, LS180; type: cell-based; settings: Homo sapiens; LS180 cells, 120 to 168 hours
Method: as §1, §2

LS174T = assay: Growth inhibition, CyQUANT Direct Cell Proliferation Assay, LS174T; type: cell-based; settings: Homo sapiens; LS174T cells, 120 to 168 hours
Method: as §1, §2

`O=C1CCC(N2Cc3cc(N4CCN(c5ccc(C6CC6)cc5)C4=O)ccc3C2=O)C(=O)N1` (stereo not shown) [Compound 123, 3-(5-(3-(4-cyclopropylphenyl)-2-oxoimidazolidin-1-yl)-1-oxoisoindolin-2-yl)piperidine-2,6-dione] showed a DC50 (CK1α) of no more than 0.1 µM, an IC50 (CRBN/DDB1) greater than 1000 nM and a GI50 (SKCO1) of no more than 100 nM. For the same compound, the GI50 (CW2) was no more than 100 nM, the GI50 (GP2D) was 100 to 1000 nM and the GI50 (LS180) was 100 to 1000 nM. It also gave a GI50 (LS174T) of no more than 100 nM.
